In the test the test system is P388 leukemia ip, CD2F1 mice, survival T/C. The experiment in a line: NCI In Vivo Anticancer Drug Screen. Data for tumor model P388 Leukemia (intraperitoneal) in CD2F1 (CDF1) mice. To be noted: endpoint: median survival time, higher = longer survival. An outline of the steps:
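Mice carrying the transplanted tumor received test compound or vehicle. Survival was recorded in each group, and the value is the treated-group measurement divided by that of the vehicle-treated control group.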

Where [1] appears, read: dose: 60.0 mg/kg/injection, schedule: Q01DX005 (ip), vehicle: Klucel (hydroxypropylcellulose) (HPC).
Setting [2] is: dose: 120.0 mg/kg/injection, schedule: Q01DX005 (ip), vehicle: Klucel (hydroxypropylcellulose) (HPC).
[3] abbreviates: dose: 240.0 mg/kg/injection, schedule: Q01DX005 (ip), vehicle: Klucel (hydroxypropylcellulose) (HPC).
Setting [4] is: dose: 50.0 mg/kg/injection, schedule: Q01DX005 (ip), vehicle: saline with Tween-80.
The mark [5] stands for this setting: dose: 50.0 mg/kg/injection, schedule: Q01DX005 (ip), vehicle: Klucel (hydroxypropylcellulose) (HPC).
Setting [6] is: dose: 100.0 mg/kg/injection, schedule: Q01DX005 (ip), vehicle: Klucel (hydroxypropylcellulose) (HPC).
Setting [7] is: dose: 60.0 mg/kg/injection, schedule: Q01DX005 (ip), vehicle: saline with Tween-80.
The mark [8] stands for this setting: dose: 120.0 mg/kg/injection, schedule: Q01DX005 (ip), vehicle: saline with Tween-80.
The mark [9] stands for this setting: dose: 100.0 mg/kg/injection, schedule: Q01DX001 (ip), vehicle: saline with Tween-80.
The mark [10] stands for this setting: dose: 200.0 mg/kg/injection, schedule: Q01DX001 (ip), vehicle: saline with Tween-80.
The mark [11] stands for this setting: dose: 50.0 mg/kg/injection, schedule: Q01DX009 (ip), vehicle: saline with Tween-80.
[12] abbreviates: dose: 100.0 mg/kg/injection, schedule: Q01DX009 (ip), vehicle: saline with Tween-80.
Where [13] appears, read: dose: 12.5 mg/kg/injection, schedule: Q01DX009 (ip), vehicle: saline.
[14] abbreviates: dose: 25.0 mg/kg/injection, schedule: Q01DX009 (ip), vehicle: saline.

Where “and” joins values, the source holds several entries; their conditions need not be identical. Identical values can stand only once. Inconclusive results and toxic doses are left out. Peptide text beside a SMILES is read from it. * marks the point of attachment. Trt = c1ccc(C(c2ccccc2)(c2ccccc2)*)cc1; Cbz = O=C(OCc1ccccc1)*; Bz = O=C(c1ccccc1)*

Regarding `COC(=O)C(CSC(=O)c1ccccc1)NC(=O)CNC(=O)CNC(=O)C(CCCCNC(=O)OCc1ccccc1)NC(=O)CNC(=O)C(CSC(c1ccccc1)(c1ccccc1)c1ccccc1)NC(=O)OCc1ccccc1` (stereo unspecified) (Cbz-C(Trt)GK(Cbz)GGC(Bz)-OMe; configuration not given here), the T/C runs as follows: under setting [1], 97 % of control; under setting [2], 97 % of control; under setting [3], 88 % of control.
In the case of `COc1c2c(c(O)c3c4c(c(C)cc13)C1OC3(C(OC)OC5CC(C)(O)C(OC6CC(C)(O)C(O)C(C)O6)C(C)O5)OC1C(OC)(O4)C31CO1)C(=O)C(O)CC2OC1CC(C)(O)C(OC(C)=O)C(C)O1` (stereo unspecified), the T/C runs as follows: (dose: 0.06 mg/kg/injection, schedule: Q01DX005 (ip), vehicle: saline) 158 % of control; (dose: 0.13 mg/kg/injection, schedule: Q01DX005 (ip), vehicle: saline) 155 % of control and 166 % of control.
Consider `[Zn].c1c[nH]cn1.c1c[nH]cn1.c1c[nH]cn1.c1c[nH]cn1`, for which the T/C by setting is: (dose: 25.0 mg/kg/injection, schedule: Q01DX005 (ip), vehicle: saline with Tween-80) 107 % of control and 109 % of control; under setting [4], 106 % of control and 110 % of control and 115 % of control.
Consider `COCCOC(C)C(=O)C(O)S(=O)(=O)O` (stereo unspecified), for which the T/C reads like this: (dose: 100.0 mg/kg/injection, schedule: Q01DX009 (ip), vehicle: saline) 109 % of control; (dose: 100.0 mg/kg/injection, schedule: Q04DX003 (ip), vehicle: saline) 100 % of control; (dose: 200.0 mg/kg/injection, schedule: Q04DX003 (ip), vehicle: saline) 100 % of control; (dose: 400.0 mg/kg/injection, schedule: Q01DX009 (ip), vehicle: saline) 154 % of control; (dose: 400.0 mg/kg/injection, schedule: Q04DX003 (ip), vehicle: saline) 107 % of control.
Regarding `CCCCn1c(CCC)nc([N+](=O)[O-])c1Sc1ncn[nH]1`, the T/C (dose: 25.0 mg/kg/injection, schedule: Q01DX005 (ip), vehicle: Klucel (hydroxypropylcellulose) (HPC)) was 98 % of control; the T/C under setting [5] was 117 % of control and 118 % of control; the T/C under setting [6] was 114 % of control; the T/C (dose: 200.0 mg/kg/injection, schedule: Q01DX005 (ip), vehicle: Klucel (hydroxypropylcellulose) (HPC)) was 122 % of control and 123 % of control.
`COc1cc(C2c3cc4c(cc3CCN2C)OCO4)cc(OC)c1OC` (stereo unspecified): the T/C was 106 % of control under setting [4] and 94 % of control (dose: 100.0 mg/kg/injection, schedule: Q01DX005 (ip), vehicle: saline with Tween-80).
For `CC1=C/C(=N\SC(c2ccccc2)(c2ccccc2)c2ccccc2)CCC1`, the T/C is, setting by setting: (dose: 100.0 mg/kg/injection, schedule: Q04DX002 (ip), vehicle: saline with Tween-80) 94 % of control; (dose: 200.0 mg/kg/injection, schedule: Q04DX002 (ip), vehicle: saline with Tween-80) 95 % of control.
For the compound `COC(=O)C1(C)N=NN=C1N(C)C` (stereo unspecified), the T/C was 101 % of control (dose: 100.0 mg/kg/injection, schedule: Q04DX002 (ip), vehicle: saline); 100 % of control (dose: 200.0 mg/kg/injection, schedule: Q04DX002 (ip), vehicle: saline); 101 % of control (dose: 400.0 mg/kg/injection, schedule: Q04DX002 (ip), vehicle: saline).
Consider `COC(=O)c1nc(N)nc(C(=O)OC)c1C(=O)C(C)C`, for which the T/C under setting [7] is 97 % of control and the T/C under setting [8] was 98 % of control.
In the case of `CCOC(=O)/N=[N+](\[O-])c1cccc(Cl)c1`, the T/C reads like this: under setting [9], 110 % of control; under setting [10], 102 % of control.
As to `Cc1cc(NCCCN(C)C)c2cc3ccc4cccc5ccc(c2n1)c3c45`, the T/C is 109 % of control under setting [11] and 108 % of control under setting [12].
Regarding `COc1ccc2c3c1OC1C(OC)(OC)C=C[C@@]4(Br)[C@@H](C2)N(C)CC[C@]314` (stereo partly specified), the T/C runs as follows: under setting [9], 109 % of control; under setting [10], 106 % of control; (dose: 400.0 mg/kg/injection, schedule: Q01DX001 (ip), vehicle: saline with Tween-80) 123 % of control.
Consider `O=C1c2ccccc2-c2c3c(cc4ccnc1c24)OCO3`, for which the T/C (dose: 3.12 mg/kg/injection, schedule: Q01DX009 (ip), vehicle: saline with Tween-80) was 115 % of control; the T/C (dose: 6.25 mg/kg/injection, schedule: Q01DX009 (ip), vehicle: Klucel (hydroxypropylcellulose) (HPC)) was 101 % of control; the T/C (dose: 6.25 mg/kg/injection, schedule: Q01DX009 (ip), vehicle: saline with Tween-80) was 105 % of control; the T/C (dose: 12.5 mg/kg/injection, schedule: Q01DX009 (ip), vehicle: Klucel (hydroxypropylcellulose) (HPC)) was 97 % of control; the T/C (dose: 12.5 mg/kg/injection, schedule: Q01DX009 (ip), vehicle: saline with Tween-80) is 89 % of control; the T/C (dose: 25.0 mg/kg/injection, schedule: Q01DX009 (ip), vehicle: Klucel (hydroxypropylcellulose) (HPC)) is 99 % of control. Also, the T/C by setting is: (dose: 50.0 mg/kg/injection, schedule: Q01DX009 (ip), vehicle: Klucel (hydroxypropylcellulose) (HPC)) 100 % of control; under setting [11], 99 % of control; under setting [12], 99 % of control.
In the case of `Cc1nc2c([N+](=O)[O-])cc(Cl)cc2[nH]1`, the T/C was 107 % of control (dose: 30.0 mg/kg/injection, schedule: Q01DX005 (ip), vehicle: Klucel (hydroxypropylcellulose) (HPC)); 107 % of control under setting [1]; 103 % of control under setting [2].
With `O=C1OC2=CC=CC=CC2C12C1C=CC=CC12` (stereo unspecified), the T/C by setting is: under setting [11], 100 % of control; under setting [12], 105 % of control; (dose: 200.0 mg/kg/injection, schedule: Q01DX009 (ip), vehicle: saline with Tween-80) 104 % of control.
On to `Nn1cnc2c(ncn2C2OC(CO)C(O)C2O)c1=O` (stereo unspecified), for which the T/C is 98 % of control under setting [1], 99 % of control under setting [2] and 97 % of control under setting [3].
Regarding `CCCCN=C(c1ccc(O)cc1)c1ccc(OC)cc1O`, the T/C under setting [7] is 108 % of control; the T/C under setting [8] was 92 % of control; the T/C (dose: 240.0 mg/kg/injection, schedule: Q01DX005 (ip), vehicle: saline with Tween-80) was 99 % of control.
As to `ClC(Cl)(Cl)C(Cl)(Cl)c1ccc(C(Cl)(Cl)C(Cl)(Cl)Cl)cc1`, the T/C reads like this: (dose: 132.0 mg/kg/injection, schedule: Q04DX003 (ip), vehicle: saline with Tween-80) 100 % of control; (dose: 200.0 mg/kg/injection, schedule: Q04DX003 (ip), vehicle: saline with Tween-80) 100 % of control; (dose: 300.0 mg/kg/injection, schedule: Q04DX003 (ip), vehicle: saline with Tween-80) 100 % of control.
Consider `CC(C)N=C(c1ccccc1)N1CCCCC1`, for which the T/C is 98 % of control under setting [13] and 100 % of control under setting [14].
In the case of `COc1c2c(c(OC)c3c1C(=O)C(=O)C=C3O)OCO2`, the T/C was 104 % of control under setting [1] and 113 % of control under setting [2].
Take `NCC1=NCCN1`: the T/C is 92 % of control (dose: 60.0 mg/kg/injection, schedule: Q01DX005 (ip), vehicle: saline); 99 % of control (dose: 120.0 mg/kg/injection, schedule: Q01DX005 (ip), vehicle: saline); 94 % of control (dose: 240.0 mg/kg/injection, schedule: Q01DX005 (ip), vehicle: saline).
`c1ccc(CC23CCCCC2N3)cc1` (stereo unspecified): the T/C by setting is: under setting [13], 95 % of control; (dose: 12.5 mg/kg/injection, schedule: Q04DX003 (ip), vehicle: saline) 90 % of control; under setting [14], 113 % of control; (dose: 25.0 mg/kg/injection, schedule: Q04DX003 (ip), vehicle: saline) 90 % of control; (dose: 50.0 mg/kg/injection, schedule: Q01DX009 (ip), vehicle: saline) 100 % of control; (dose: 50.0 mg/kg/injection, schedule: Q04DX003 (ip), vehicle: saline) 100 % of control.
Take `O=NCC(=O)OCc1ccccc1`: the T/C (dose: 12.5 mg/kg/injection, schedule: Q01DX009 (ip), vehicle: water) is 95 % of control; the T/C (dose: 25.0 mg/kg/injection, schedule: Q01DX009 (ip), vehicle: water) was 87 % of control; the T/C (dose: 50.0 mg/kg/injection, schedule: Q01DX009 (ip), vehicle: water) is 95 % of control; the T/C (dose: 100.0 mg/kg/injection, schedule: Q01DX009 (ip), vehicle: water) is 99 % of control; the T/C (dose: 200.0 mg/kg/injection, schedule: Q01DX009 (ip), vehicle: water) is 99 % of control.
Turning to `Cc1c(N=Nc2ccc(Br)cc2)c(-c2ccccc2)nn1C(N)=S`, the T/C is, setting by setting: under setting [5], 102 % of control; under setting [6], 105 % of control.

The values are drawn from PubChem BioAssay AID330 (DTP/NCI, 2004).
